From patent publication US10654828B2 (NOVARTIS AG, priority 2017, dated 2020)

What was measured:
[1] = tested on: FoxO3a; assay: FoxO3a inhibition: GFP-FoxO3a nuclear to cytoplasmic translocation reporter assay; assay type: cell-based; settings: Homo sapiens, U2OS, 0.5 h, U2OS GFP-FoxO3a H212R cells, serum starved overnight, compound 30 minutes; ratio of nuclear to cytosolic GFP intensity; DMSO control 0%; read-out: FoxO AC50
Procedure: (§1) Phosphorylation of AKT on S473 and FoxO3a nuclear to cytoplasmic translocation were used as readouts of PI3K/Akt/mTOR pathway activation downstream of growth factor signaling.
(§2) Reporter cell line. U2OS GFP-FoxO3a H212R reporter cell line was established by transducing U2OS cells with the retroviral plasmid pLEGFP-C1 containing FoxO3a H212R transgene and selecting for G418 resistant clones.
(§3) Reporter assay. U2OS GFP-FoxO3a H212R cells were plated in 384-well plates at 4000 cells per well in 30 microliters of McCoy's 5 A medium containing 10% FBS. On day 1 the cells were washed with serum free medium and serum starved overnight. On day 2 the cells were treated with different doses of the compounds for 30 minutes, fixed with 4% Paraformaldehyde for 1 hour and stained with Phospho-AKT (Ser473) antibody (Cell Signaling Technology, catalog #4060) overnight at 4 degrees Celsius. After nuclei staining with Hoechst 33342 (Life Technologies, catalog # H3570) the plates were imaged with InCell 2000 (GE Healthcare Bio-Sciences). FoxO3a inhibition activity is calculated as the ratio of nuclear to cytosolic GFP intensity in percent. AKT activation is measured as the total cellular intensity of Phospho-AKT antibody staining in percent. DMSO control is set as 0% activity.

[2] = tested on: AKT; assay: AKT activation: Phospho-AKT (Ser473) antibody staining in reporter cells; assay type: cell-based; settings: Homo sapiens, U2OS, 0.5 h, U2OS GFP-FoxO3a H212R cells, serum starved overnight, compound 30 minutes; total cellular intensity of Phospho-AKT (Ser473) staining; DMSO control 0%
Procedure: as §1, §2, §3

Q: `Cc1cc(C(N)=O)nn1-c1ccc2c(ccn2Cc2ccc(C3CCCNC3)cc2)c1` (stereo not drawn) [Example 2-4, 5-methyl-1-(1-(4-(piperidin-3-yl)benzyl)-1H-indol-5-yl)-1H-pyrazole-3-carboxamide] was tested. Which AC50 [1] did it give?
A: Its AC50 is 429 nM.

Q: What about the AC50 [2] of the same compound?
A: Its AC50 is 1630 nM.

Q: Which results are given for `Cc1cc(C(N)=O)nn1-c1ccc2c(ccn2Cc2ccc(C3CCN(C)CC3)cc2)c1` [Example 2-5, 5-methyl-1-(1-(4-(1-methylpiperidin-4-yl)benzyl)-1H-indol-5-yl)-1H-pyrazole-3-carboxamide]?
A: AC50 [1]: 281 nM; AC50 [2]: 760 nM

Q: With `Cc1cc(C(N)=O)nn1-c1ccc2c(ccn2Cc2ccc(C3=CCNCC3)cc2)c1` [Example 3, 5-methyl-1-(1-(4-(1,2,3,6-tetrahydropyridin-4-yl)benzyl)-1H-indol-5-yl)-1H-pyrazole-3-carboxamide] as the compound, how does the AC50 [1] read?
A: The AC50 was 476 nM.

Q: And the AC50 [2]?
A: Its AC50 is 1170 nM.

Q: `Cc1cc(C(N)=O)nn1-c1ccc2c(ccn2Cc2ccc(C3=CCN(S(C)(=O)=O)CC3)cc2)c1` [Example 4, 5-methyl-1-(1-(4-(1-(methylsulfonyl)-1,2,3,6-tetrahydropyridin-4-yl)benzyl)-1H-indol-5-yl)-1H-pyrazole-3-carboxamide] was tested. Which AC50 [1] did it give?
A: Its AC50 is 109 nM.

Q: And the AC50 [2]?
A: Its AC50 is 306 nM.

Q: For `Cc1cc(C(N)=O)nn1-c1ccc2c(ccn2Cc2ccc(C3=CCN(C(=O)CCCN(C)C)CC3)cc2)c1` [Example 10], which AC50 [1] is on record?
A: The AC50 was 189 nM.

Q: What about the AC50 [2] of the same compound?
A: Its AC50 is 512 nM.

Q: For `Cc1cc(C(N)=O)nn1-c1ccc2c(ccn2Cc2ccc(N3CCNCC3)cc2)c1` [Example 11-1, 5-methyl-1-(1-(4-(piperazin-1-yl)benzyl)-1H-indol-5-yl)-1H-pyrazole-3-carboxamide], which AC50 [1] is on record?
A: The AC50 was 4080 nM.

Q: And the AC50 [2]?
A: The AC50 was greater than 10000 nM.

Q: With `Cc1cc(C(N)=O)nn1-c1ccc2c(ccn2Cc2ccc(N3CCN(C)CC3)cc2)c1` [Example 11-2, 5-methyl-1-(1-(4-(4-methylpiperazin-1-yl)benzyl)-1H-indol-5-yl)-1H-pyrazole-3-carboxamide] as the compound, how does the AC50 [1] read?
A: Its AC50 is 341 nM.

Q: What about the AC50 [2] of the same compound?
A: The AC50 was 1060 nM.

Q: `Cc1cc(C(N)=O)nn1-c1ccc2c(ccn2Cc2ccc(N3CC4CN(C)CC4C3)cc2)c1` (stereo not drawn) [Example 11-3, 5-methyl-1-(1-(4-(5-methylhexahydropyrrolo[3,4-c]pyrrol-2(1H)-yl)benzyl)-1H-indol-5-yl)-1H-pyrazole-3-carboxamide] was tested. Which AC50 [1] did it give?
A: The AC50 was 1160 nM.

Q: What about the AC50 [2] of the same compound?
A: Its AC50 is 2970 nM.

Q: Which results are given for `Cc1cc(C(N)=O)nn1-c1ccc2c(ccn2Cc2ccc(C#CCN(C)C)cc2)c1` [Example 12, 1-(1-(4-(3-(dimethylamino)prop-1-yn-1-yl)benzyl)-1H-indol-5-yl)-5-methyl-1H-pyrazole-3-carboxamide]?
A: AC50 [1]: 402 nM; AC50 [2]: 1190 nM

Q: For `Cc1cc(C(N)=O)nn1-c1ccc2c(ccn2Cc2ccc(C3=CCN(C)C(C)(C)C3)cc2)c1` [Example 15-1, 5-methyl-1-(1-(4-(1,2,2-trimethyl-1,2,3,6-tetrahydropyridin-4-yl)benzyl)-1H-indol-5-yl)-1H-pyrazole-3-carboxamide], which AC50 [1] is on record?
A: The AC50 was 242 nM.

Q: And the AC50 [2]?
A: Its AC50 is 391 nM.

Q: Which results are given for `Cc1cc(C(N)=O)nn1-c1ccc2c(ccn2Cc2ccc(C3=CCN(C)CC3(C)C)cc2)c1` [Example 15-2, 5-methyl-1-(1-(4-(1,3,3-trimethyl-1,2,3,6-tetrahydropyridin-4-yl)benzyl)-1H-indol-5-yl)-1H-pyrazole-3-carboxamide]?
A: AC50 [1]: 197 nM; AC50 [2]: 389 nM

Q: With `Cc1cc(C(N)=O)nn1-c1ccc2c(ccn2Cc2ccc(C3=CCC4(CC3)CN(C)C4)cc2)c1` [Example 15-3, 5-methyl-1-(1-(4-(2-methyl-2-azaspiro[3.5]non-6-en-7-yl)benzyl)-1H-indol-5-yl)-1H-pyrazole-3-carboxamide] as the compound, how does the AC50 [1] read?
A: The AC50 was 96 nM.

Q: What about the AC50 [2] of the same compound?
A: The AC50 was 398 nM.

Q: How did the AC50 [1] turn out when `Cc1cc(C(N)=O)nn1-c1ccc2c(ccn2Cc2ccc(C3CCN(C)CC3(C)C)cc2)c1` (stereo not drawn) [Example 16-1, 5-methyl-1-(1-(4-(1,3,3-trimethylpiperidin-4-yl)benzyl)-1H-indol-5-yl)-1H-pyrazole-3-carboxamide] was run?
A: The AC50 was 171 nM.

Q: And the AC50 [2]?
A: The AC50 was 966 nM.

Q: What does the source list for `Cc1cc(C(N)=O)nn1-c1ccc2c(ccn2Cc2ccc(C3CCC4(CC3)CN(C)C4)cc2)c1` [Example 16-4, 5-methyl-1-(1-(4-(2-methyl-2-azaspiro[3.5]nonan-7-yl)benzyl)-1H-indol-5-yl)-1H-pyrazole-3-carboxamide]?
A: AC50 [1]: 186 nM; AC50 [2]: 756 nM

Q: `Cc1cc(C(N)=O)nn1-c1ccc2c(ccn2Cc2ccc(C3=CCN(C)CC3C)cc2)c1` (stereo not drawn) [Example 17-1, 1-(1-(4-(1,3-dimethyl-1,2,3,6-tetrahydropyridin-4-yl)benzyl)-1H-indol-5-yl)-5-methyl-1H-pyrazole-3-carboxamide] was tested. Which AC50 [1] did it give?
A: Its AC50 is 102 nM.

Q: What about the AC50 [2] of the same compound?
A: The AC50 was 460 nM.

Q: With `Cc1cc(C(N)=O)nn1-c1ccc2c(ccn2Cc2ccc(-c3ccc(S(=O)(=O)CCO)cc3)cc2)c1` [Example 18, 1-(1-((4′-((2-hydroxyethyl)sulfonyl)-[1,1′-biphenyl]-4-yl)methyl)-1H-indol-5-yl)-5-methyl-1H-pyrazole-3-carboxamide] as the compound, how does the AC50 [1] read?
A: The AC50 was 57 nM.

Q: What about the AC50 [2] of the same compound?
A: Its AC50 is 110 nM.

Q: How did the AC50 [1] turn out when `Cc1cc(C(N)=O)nn1-c1ccc2c(ccn2Cc2ccc(-c3ccc(S(=O)(=O)CCN4CCN(C)CC4)cc3)cc2)c1` [Example 19, 5-methyl-1-(1-((4′-((2-(4-methylpiperazin-1-yl)ethyl)sulfonyl)-[1,1′-biphenyl]-4-yl)methyl)-1H-indol-5-yl)-1H-pyrazole-3-carboxamide] was run?
A: Its AC50 is 61 nM.

Q: What about the AC50 [2] of the same compound?
A: Its AC50 is 142 nM.

Q: What does the source list for `Cc1cc(C(N)=O)nn1-c1ccc2c(c1)c(C1=CCOCC1)cn2Cc1ccc(-c2ccc(S(C)(=O)=O)cc2)cc1` [Example 19-1, 1-(3-(3,6-dihydro-2H-pyran-4-yl)-1-((4′-(methylsulfonyl)-[1,1′-biphenyl]-4-yl)methyl)-1H-indol-5-yl)-5-methyl-1H-pyrazole-3-carboxamide]?
A: AC50 [1]: 52 nM; AC50 [2]: 81 nM

Q: With `Cc1cc(C(N)=O)nn1-c1ccc2c(c1)c(C1=CCN(C)CC1)cn2Cc1ccc(-c2ccc(S(C)(=O)=O)cc2)cc1` [Example 19-2, 5-methyl-1-(3-(1-methyl-1,2,3,6-tetrahydropyridin-4-yl)-1-((4′-(methylsulfonyl)-[1,1′-biphenyl]-4-yl)methyl)-1H-indol-5-yl)-1H-pyrazole-3-carboxamide] as the compound, how does the AC50 [1] read?
A: Its AC50 is 346 nM.

Q: And the AC50 [2]?
A: The AC50 was 1020 nM.

Q: With `Cc1cc(C(N)=O)nn1-c1ccc2c(ccn2Cc2ccc(-c3ccc(S(=O)(=O)CCN(C)C)cc3)cc2)c1` [Example 19-3, 1-(1-((4′-((2-(dimethylamino)ethyl)sulfonyl)-[1,1′-biphenyl]-4-yl)methyl)-1H-indol-5-yl)-5-methyl-1H-pyrazole-3-carboxamide] as the compound, how does the AC50 [1] read?
A: Its AC50 is 99 nM.

Q: What about the AC50 [2] of the same compound?
A: Its AC50 is 128 nM.

Q: With `Cc1cc(C(N)=O)nn1-c1ccc2c(c1)c(C1CCOCC1)cn2Cc1ccc(-c2ccc(S(C)(=O)=O)cc2)cc1` [Example 20, 5-methyl-1-(1-((4′-(methylsulfonyl)-[1,1′-biphenyl]-4-yl)methyl)-3-(tetrahydro-2H-pyran-4-yl)-1H-indol-5-yl)-1H-pyrazole-3-carboxamide] as the compound, how does the AC50 [1] read?
A: The AC50 was 68 nM.

Q: And the AC50 [2]?
A: Its AC50 is 186 nM.

Q: For `Cc1cc(C(N)=O)nn1-c1ccc2c(c1)c(C1=CCNCC1)cn2Cc1ccc(-c2ccc(S(C)(=O)=O)cc2)cc1` [Example 21, 5-methyl-1-(1-((4′-(methylsulfonyl)-[1,1′-biphenyl]-4-yl)methyl)-3-(1,2,3,6-tetrahydropyridin-4-yl)-1H-indol-5-yl)-1H-pyrazole-3-carboxamide], which AC50 [1] is on record?
A: The AC50 was 598 nM.

Q: What about the AC50 [2] of the same compound?
A: The AC50 was 1650 nM.

Q: `Cc1cc(C(N)=O)nn1-c1ccc2c(c1)c(CCCO)cn2Cc1ccc(-c2ccc(S(C)(=O)=O)cc2)cc1` [Example 22, 1-(3-(3-hydroxypropyl)-1-((4′-(methylsulfonyl)-[1,1′-biphenyl]-4-yl)methyl)-1H-indol-5-yl)-5-methyl-1H-pyrazole-3-carboxamide] was tested. Which AC50 [1] did it give?
A: The AC50 was 32 nM.

Q: What about the AC50 [2] of the same compound?
A: Its AC50 is 81 nM.

Q: With `COCCCc1cn(Cc2ccc(-c3ccc(S(C)(=O)=O)cc3)cc2)c2ccc(-n3nc(C(N)=O)cc3C)cc12` [Example 23, 1-(3-(3-methoxypropyl)-1-((4′-(methylsulfonyl)-[1,1′-biphenyl]-4-yl)methyl)-1H-indol-5-yl)-5-methyl-1H-pyrazole-3-carboxamide] as the compound, how does the AC50 [1] read?
A: Its AC50 is 56 nM.

Q: What about the AC50 [2] of the same compound?
A: The AC50 was 173 nM.

Q: For `Cc1cc(C(N)=O)nn1-c1ccc2c(ccn2Cc2ccc([C@@H]3C[C@@H]4CN(C)C[C@@H]4C3)cc2)c1` [Example 26-1, 5-methyl-1-(1-(4-((3aR,5r,6aS)-2-methyloctahydrocyclopenta[c]pyrrol-5-yl)benzyl)-1H-indol-5-yl)-1H-pyrazole-3-carboxamide], which AC50 [1] is on record?
A: Its AC50 is 95 nM.

Q: And the AC50 [2]?
A: Its AC50 is 314 nM.

Q: For `Cc1cc(C(N)=O)nn1-c1ccc2c(ccn2Cc2ccc([C@H]3C[C@@H]4CN(C)C[C@@H]4C3)cc2)c1` [Example 26-2, 5-methyl-1-(1-(4-((3aR,5s,6aS)-2-methyloctahydrocyclopenta[c]pyrrol-5-yl)benzyl)-1H-indol-5-yl)-1H-pyrazole-3-carboxamide], which AC50 [1] is on record?
A: Its AC50 is 80 nM.

Q: And the AC50 [2]?
A: Its AC50 is 362 nM.

Q: What does the source list for `Cc1nc(C(N)=O)nn1-c1ccc2c(ccn2Cc2ccc([C@@H]3C[C@@H]4CN(C)C[C@@H]4C3)cc2)c1` [Example 27, 5-methyl-1-(1-(4-((3aR,5r,6aS)-2-methyloctahydrocyclopenta[c]pyrrol-5-yl)benzyl)-1H-indol-5-yl)-1H-1,2,4-triazole-3-carboxamide]?
A: AC50 [1]: 224 nM; AC50 [2]: 947 nM
